Tests used:
Test in all cases: relative viability (nuclei count vs DMSO), 5 days (fraction); higher = more cells survive
Motesanib + Pemetrexed = compound: CC1(C)CNc2cc(NC(=O)c3cccnc3NCc3ccncc3)ccc21 [Motesanib] + Nc1nc2[nH]cc(CCc3ccc(C(=O)N[C@@H](CCC(=O)O)C(=O)O)cc3)c2c(=O)[nH]1 [Pemetrexed] (partner 0.2 µM)
How it was run: (§1)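 Relative viability is defined as nuclei in treated wells over nuclei in vehicle wells. Duplicate plates were run and medians reported. Lung cancer cell lines in 1536-well plates were dosed by pin tool one day after seeding, with one drug or with a fixed anchor-drug dose plus five library-drug doses (not always all listed) in √10 steps, and nuclei were counted after 5 days.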

[1] = compound: C[C@@]1(C(=O)Nc2ccc(F)nc2)CCCN1c1nc(Nc2cc(C3CC3)n[nH]2)c2cccn2n1 + CC(=O)Nc1cccc(-n2c(=O)n(C3CC3)c(=O)c3c(Nc4ccc(I)cc4F)n(C)c(=O)c(C)c32)c1 [Trametinib] (partner 0.02 µM)
How it was run: as §1

[2] = compound: C[C@@]1(C(=O)Nc2ccc(F)nc2)CCCN1c1nc(Nc2cc(C3CC3)n[nH]2)c2cccn2n1 + COc1cc2c(Oc3ccc(NC(=O)C4(C(=O)Nc5ccc(F)cc5)CC4)cc3F)ccnc2cc1OCCCN1CCOCC1 [Foretinib] (partner 0.25 µM)
How it was run: as §1

[3] = compound: C[C@@]1(C(=O)Nc2ccc(F)nc2)CCCN1c1nc(Nc2cc(C3CC3)n[nH]2)c2cccn2n1 + Nc1nc2[nH]cc(CCc3ccc(C(=O)N[C@@H](CCC(=O)O)C(=O)O)cc3)c2c(=O)[nH]1 [Pemetrexed] (partner 0.2 µM)
How it was run: as §1

Cell Line: NCI-H1355
- relative viability (Motesanib + Pemetrexed; first compound 0.01 µM): 1.06
- relative viability (Motesanib + Pemetrexed; first compound 0.03162 µM): 1.04
- relative viability (Motesanib + Pemetrexed; first compound 0.1 µM): 1.05
- relative viability (Motesanib + Pemetrexed; first compound 0.3162 µM): 1.07
- relative viability (Motesanib + Pemetrexed; first compound 1 µM): 0.991
- relative viability ([1]; first compound 0.04 µM): 0.36
- relative viability ([1]; first compound 0.1265 µM): 0.302
- relative viability ([1]; first compound 0.4 µM): 0.289
- relative viability ([1]; first compound 1.265 µM): 0.346
- relative viability ([2]; first compound 0.04 µM): 0.929
- relative viability ([2]; first compound 0.1265 µM): 0.87
- relative viability ([2]; first compound 0.4 µM): 0.701
- relative viability ([2]; first compound 1.265 µM): 1
- relative viability ([3]; first compound 0.04 µM): 1.01
- relative viability ([3]; first compound 0.1265 µM): 0.957
- relative viability ([3]; first compound 0.4 µM): 0.826
- relative viability ([3]; first compound 1.265 µM): 0.953

Cell Line: HOP-62
- relative viability (Motesanib + Pemetrexed; first compound 0.01 µM): 0.288
- relative viability (Motesanib + Pemetrexed; first compound 0.03162 µM): 0.296
- relative viability (Motesanib + Pemetrexed; first compound 0.1 µM): 0.214
- relative viability (Motesanib + Pemetrexed; first compound 0.3162 µM): 0.209
- relative viability (Motesanib + Pemetrexed; first compound 1 µM): 0.173
- relative viability ([1]; first compound 0.04 µM): 0.406
- relative viability ([1]; first compound 0.1265 µM): 0.303
- relative viability ([1]; first compound 0.4 µM): 0.313
- relative viability ([1]; first compound 1.265 µM): 0.397
- relative viability ([2]; first compound 0.04 µM): 1.14
- relative viability ([2]; first compound 0.1265 µM): 1.11
- relative viability ([2]; first compound 0.4 µM): 1.02
- relative viability ([2]; first compound 1.265 µM): 1.16
- relative viability ([3]; first compound 0.04 µM): 0.294
- relative viability ([3]; first compound 0.1265 µM): 0.297
- relative viability ([3]; first compound 0.4 µM): 0.315
- relative viability ([3]; first compound 1.265 µM): 0.341

Cell Line: NCI-H2085
- relative viability (Motesanib + Pemetrexed; first compound 0.01 µM): 0.895
- relative viability (Motesanib + Pemetrexed; first compound 0.03162 µM): 0.969
- relative viability (Motesanib + Pemetrexed; first compound 0.1 µM): 0.852
- relative viability (Motesanib + Pemetrexed; first compound 0.3162 µM): 0.851
- relative viability (Motesanib + Pemetrexed; first compound 1 µM): 0.892
- relative viability ([1]; first compound 0.04 µM): 0.929
- relative viability ([1]; first compound 0.1265 µM): 0.471
- relative viability ([1]; first compound 0.4 µM): 0.58
- relative viability ([1]; first compound 1.265 µM): 0.636
- relative viability ([2]; first compound 0.04 µM): 0.989
- relative viability ([2]; first compound 0.1265 µM): 0.736
- relative viability ([2]; first compound 0.4 µM): 0.73
- relative viability ([2]; first compound 1.265 µM): 0.675
- relative viability ([3]; first compound 0.04 µM): 0.959
- relative viability ([3]; first compound 0.1265 µM): 0.844
- relative viability ([3]; first compound 0.4 µM): 0.887
- relative viability ([3]; first compound 1.265 µM): 0.877

Cell Line: SW 900
- relative viability (Motesanib + Pemetrexed; first compound 0.01 µM): 0.459
- relative viability (Motesanib + Pemetrexed; first compound 0.03162 µM): 0.416
- relative viability (Motesanib + Pemetrexed; first compound 0.1 µM): 0.356
- relative viability (Motesanib + Pemetrexed; first compound 0.3162 µM): 0.301
- relative viability (Motesanib + Pemetrexed; first compound 1 µM): 0.303
- relative viability ([1]; first compound 0.04 µM): 0.764
- relative viability ([1]; first compound 0.1265 µM): 0.805
- relative viability ([1]; first compound 0.4 µM): 0.808
- relative viability ([1]; first compound 1.265 µM): 0.572
- relative viability ([2]; first compound 0.04 µM): 0.705
- relative viability ([2]; first compound 0.1265 µM): 0.694
- relative viability ([2]; first compound 0.4 µM): 0.558
- relative viability ([2]; first compound 1.265 µM): 0.816
- relative viability ([3]; first compound 0.04 µM): 0.439
- relative viability ([3]; first compound 0.1265 µM): 0.492
- relative viability ([3]; first compound 0.4 µM): 0.476
- relative viability ([3]; first compound 1.265 µM): 0.467

From the supplement of paper PMC10307832
